Consider 58 molecules from US20180116220A1, “NOVEL TRIAZOLE DERIVATIVES” (BAYER CROPSCIENCE AKTIENGESELLSCHAFT, priority 2015, published 2018).

SMILES strings stand for the structures. “And” between values parts separate entries of the source, which are not always exact repeats. Identical values can stand only once. Marks after values point to notes of the source that are not given here.

This data set can be described thus: LogP by HPLC on reversed phase columns (EEC directive 79/831 Annex V.A8). Format: physicochemical. Conditions: for chromatographic logP: reversed phase HPLC column. The protocol: [table] If more than one LogP value is available within the same method, all the values are given and separated by “+”. […] Lambda-max-values were determined using UV-spectra from 200 nm to 400 nm and the peak values of the chromatographic signals. Measurement of LogP values was performed as outlined above.

Where [1] appears, read: [a] LC-UV, acidic range, 0.1% formic acid in water and acetonitrile as eluent.
The mark [2] stands for this setting: [b] LC-UV, neutral range, 0.001 molar ammonium acetate solution in water and acetonitrile as eluent.

Usually LogP stands for a log measure of how a compound divides between an organic and an aqueous phase. Read a low LogP as lower lipophilicity. As for `OC(Cn1cncn1)(c1ccc(F)cc1F)C1(Oc2ccc(Cl)cc2F)CC1` (racemic) [Example I-01], the LogP reads like this: under setting [1], 3.52^[a];; under setting [2], 3.50^[b].

Take `OC(Cn1cncn1)(c1ccc(F)cc1F)C1(Oc2ccc(F)cc2Cl)CC1` (racemic) [Example I-02]: the LogP runs as follows: under setting [1], 3.47^[a];; under setting [2], 3.46^[b].

For `OC(Cn1cncn1)(c1ccc(F)cc1F)C1(Oc2ccccc2F)CC1` (racemic) [Example I-03], the log partition coefficient (LogP) under setting [1] was 3.04^[a].

On to `OC(Cn1cncn1)(c1ccc(F)cc1F)C1(Oc2ccccc2I)CC1` (racemic) [Example I-04], for which the lipophilicity (LogP) was 3.64^[a]; under setting [1] and 3.64^[b] under setting [2].

For the molecule `OC(Cn1cncn1)(c1ccc(F)cc1F)C1(Oc2ccccc2Br)CC1` (racemic) [Example I-05], the LogP was 3.44^[a]; under setting [1] and 3.43^[b] under setting [2].

As to `OC(Cn1cncn1)(c1ccc(F)cc1F)C1(Oc2cccc(Br)c2)CC1` (racemic) [Example I-06], the log partition coefficient (LogP) reads like this: under setting [1], 3.54^[a];; under setting [2], 3.54^[b].

On to `OC(Cn1cncn1)(c1ccc(F)cc1F)C1(Oc2ccc(Br)cc2)CC1` (racemic) [Example I-07], for which the log partition coefficient (LogP) by setting is: under setting [1], 3.59^[a];; under setting [2], 3.59^[b].

For the molecule `OC(Cn1cncn1)(c1ccc(F)cc1F)C1(Oc2ccc(I)cc2)CC1` (racemic) [Example I-08], the lipophilicity (LogP) under setting [1] was 3.78^[a]; and the LogP under setting [2] is 3.80^[b].

`OC(Cn1cncn1)(c1ccc(F)cc1F)C1(Oc2ccc(Br)cc2F)CC1` (racemic) [Example I-09]: the LogP is 3.56^[a]; under setting [1] and 3.54^[b] under setting [2].

For `OC(Cn1cncn1)(c1ccc(F)cc1F)C1(Oc2ccccc2)CC1` (racemic) [Example I-11], the lipophilicity (LogP) reads like this: under setting [1], 3.67^[a];; under setting [2], 3.71^[b].

For `Cc1cc(I)ccc1OC1(C(O)(Cn2cncn2)c2ccc(F)cc2F)CC1` (racemic) [Example I-12], the lipophilicity (LogP) was 4.25^[a]; under setting [1] and 4.30^[b] under setting [2].

Turning to `Cc1cc(Br)ccc1OC1(C(O)(Cn2cncn2)c2ccc(F)cc2F)CC1` (racemic) [Example I-13], the LogP is, setting by setting: under setting [1], 3.99^[a];; under setting [2], 4.08^[b].

In the case of `OC(Cn1cncn1)(c1ccc(F)cc1F)C1(Oc2ccc(OC(F)(F)F)cc2)CC1` (racemic) [Example I-14], the lipophilicity (LogP) by setting is: under setting [1], 3.70^[a];; under setting [2], 3.77^[b].

Take `OC(Cn1cncn1)(c1ccc(F)cc1F)C1(Oc2ccc(SC(F)(F)F)cc2)CC1` (racemic) [Example I-15]: the lipophilicity (LogP) by setting is: under setting [1], 4.09^[a];; under setting [2], 4.13^[b].

Regarding `OC(Cn1cncn1)(c1ccc(Cl)cc1F)C1(Oc2ccc(F)cc2F)CC1` (racemic) [Example I-16], the log partition coefficient (LogP) under setting [1] is 3.44^[a].

In the case of `CC(=O)OC(Cn1cncn1)(c1ccc(F)cc1F)C1(Oc2ccc(Cl)cc2)CC1` (racemic) [Example I-17], the lipophilicity (LogP) was 3.47^[a]; under setting [1] and 3.47^[b] under setting [2].

As for `OC(Cn1cncn1)(c1ccc(F)cc1F)C1(Oc2c(F)cccc2F)CC1` (racemic) [Example I-18], the LogP under setting [1] was 3.02^[a].

`OC(Cn1cncn1)(c1ccc(F)cc1F)C1(Oc2c(Cl)cccc2Cl)CC1` (racemic) [Example I-19]: under setting [1], the log partition coefficient (LogP) is 3.76^[a].

Regarding `COC(Cn1cncn1)(c1ccc(F)cc1F)C1(Oc2c(Cl)cccc2Cl)CC1` (racemic) [Example I-20], the log partition coefficient (LogP) under setting [1] was 4.06^[a].

In the case of `COC(Cn1cncn1)(c1ccc(F)cc1F)C1(Oc2c(F)cccc2F)CC1` (racemic) [Example I-21], the LogP under setting [1] is 3.48^[a].

As to `OC(Cn1cncn1)(c1ccc(F)cc1F)C1(Oc2c(F)cccc2Cl)CC1` (racemic) [Example I-22], the LogP under setting [1] is 3.39^[a].

For the molecule `COC(Cn1cncn1)(c1ccc(F)cc1F)C1(Oc2c(F)cccc2Cl)CC1` (racemic) [Example I-23], under setting [1], the LogP was 3.78^[a].

With `OC(Cn1cncn1)(c1ccc(F)cc1F)C1(Oc2c(F)cccc2Br)CC1` (racemic) [Example I-24], under setting [1], the log partition coefficient (LogP) is 3.51^[a].

For `COC(Cn1cncn1)(c1ccc(F)cc1F)C1(Oc2c(F)cccc2Br)CC1` (racemic) [Example I-25], the LogP under setting [1] is 3.83^[a].

Consider `COC(Cn1cncn1)(c1ccc(F)cc1F)C1(Oc2ccc(F)cc2F)CC1` (racemic) [Example I-26], for which the lipophilicity (LogP) under setting [1] was 3.44^[a].

Turning to `OC(Cn1cncn1)(c1ccc(Cl)cc1F)C1(Oc2ccc(Cl)cc2)CC1` (racemic) [Example I-27], the LogP under setting [1] is 3.94^[a].

As for `COC(Cn1cncn1)(c1ccc(Cl)cc1F)C1(Oc2ccc(Cl)cc2)CC1` (racemic) [Example I-28], the lipophilicity (LogP) under setting [1] is 4.29^[a].

Take `OC(Cn1cncn1)(c1ccc(Cl)cc1F)C1(Oc2ccc(Cl)cc2F)CC1` (racemic) [Example I-29]: under setting [1], the LogP was 3.89^[a].

Regarding `CCOC(Cn1cncn1)(c1ccc(F)cc1F)C1(Oc2ccc(Cl)cc2)CC1` (racemic) [Example I-30], under setting [1], the LogP is 4.32^[a].

Turning to `C#CCOC(Cn1cncn1)(c1ccc(F)cc1F)C1(Oc2ccc(Cl)cc2)CC1` (racemic) [Example I-31], the LogP under setting [1] is 3.90^[a].

Regarding `CCCOC(Cn1cncn1)(c1ccc(F)cc1F)C1(Oc2ccc(Cl)cc2)CC1` (racemic) [Example I-32], under setting [1], the LogP is 4.73^[a].

Turning to `C=CCOC(Cn1cncn1)(c1ccc(F)cc1F)C1(Oc2ccc(Cl)cc2)CC1` (racemic) [Example I-33], the LogP under setting [1] is 4.34^[a].

As to `C[Si](C)(C)COC(Cn1cncn1)(c1ccc(F)cc1F)C1(Oc2ccc(Cl)cc2)CC1` (racemic) [Example I-34], the lipophilicity (LogP) under setting [1] is 5.68^[a].

For `Fc1ccc(C(Cn2cncn2)(OCC2CC2)C2(Oc3ccc(Cl)cc3)CC2)c(F)c1` (racemic) [Example I-35], the LogP under setting [1] was 4.71^[a].

On to `COC(Cn1cncn1)(c1ccc(F)cc1F)C1(Oc2ccc(Cl)cc2)CC1` (racemic) [Example I-36], for which the LogP under setting [1] is 3.81^[a].

As to `CC(C)COC(Cn1cncn1)(c1ccc(F)cc1F)C1(Oc2ccc(Cl)cc2)CC1` (racemic) [Example I-37], under setting [1], the lipophilicity (LogP) is 5.11^[a].

As for `OC(Cn1cncn1)(c1ccc(F)cc1F)C1(Oc2ccc(C(F)(F)F)cc2)CC1` (racemic) [Example I-38], under setting [1], the log partition coefficient (LogP) was 3.70^[a].

For `OC(Cn1cncn1)(c1ccc(F)cc1F)C1(Oc2cccc(Cl)c2)CC1` (racemic) [Example I-39], the LogP under setting [1] was 3.55^[a].

Take `OC(Cn1cncn1)(c1ccc(F)cc1F)C1(Oc2ccc(Cl)c(F)c2)CC1` (racemic) [Example I-40]: the LogP under setting [1] was 3.63^[a].

On to `Fc1cc(Cl)ccc1C1(C2(Oc3ccc(Cl)cc3)CC2)CO1` (racemic) [Example V-22], for which the log partition coefficient (LogP) under setting [1] is 5.08^[a].

With `Fc1cc(Cl)ccc1OC1(C2(c3ccc(Cl)cc3F)CO2)CC1` (racemic) [Example V-23], under setting [1], the LogP was 5.00^[a].

Turning to `Fc1ccc(C2(C3(Oc4ccc(Br)c(F)c4)CC3)CO2)c(F)c1` (racemic) [Example V-24], the LogP under setting [1] is 4.89^[a].

Turning to `Fc1ccc(C2(C3(Oc4ccc(OC(F)F)cc4)CC3)CO2)c(F)c1` (racemic) [Example V-25], under setting [1], the LogP was 4.24^[a].

For `Fc1ccc(C2(C3(Oc4cccc(Cl)c4F)CC3)CO2)c(F)c1` (racemic) [Example V-26], under setting [1], the lipophilicity (LogP) is 4.44^[a].

As to `Fc1ccc(C2(C3(Oc4ccc(F)c(F)c4)CC3)CO2)c(F)c1` (racemic) [Example V-27], the LogP under setting [1] is 4.36^[a].

`OC(Cn1cncn1)(c1ccc(F)cc1F)C1(Oc2ccc(Cl)cc2)CC1` (single isomer, unassigned) [Example I-41]: under setting [1], the log partition coefficient (LogP) is 3.48^[a].

In general, chromatographic logP refers to lipophilicity estimated from chromatographic retention. A lower chromatographic logP goes with lower lipophilicity. For `Fc1ccc(C2(C3(Oc4ccc(Cl)cc4)CC3)CO2)c(F)c1` (stereo not shown) [Example V-1, 2-[1-(4-chlorophenoxy)cyclopropyl]-2-(2,4-difluorophenyl)oxirane], the chromatographic logP came to 4.57 under setting [1] and 4.58 under setting [2].

Consider `Fc1ccc(C2(C3(Oc4ccc(Cl)cc4F)CC3)CO2)c(F)c1` (stereo not shown) [Example V-2], for which the lipophilicity (LogP) was 4.50^[a]; 4.50^[b] under setting [1] and 4.50^[a]; 4.50^[b] under setting [2].

As for `Fc1ccc(C2(C3(Oc4ccc(F)cc4Cl)CC3)CO2)c(F)c1` (stereo not shown) [Example V-3], the LogP is reported as 4.45 under setting [1] and 4.44 under setting [2].

Turning to `Fc1ccc(C2(C3(Oc4ccccc4F)CC3)CO2)c(F)c1` (stereo not shown) [Example V-4], the LogP under setting [1] is 3.99^[a].

In the case of `Fc1ccc(C2(C3(Oc4ccccc4Br)CC3)CO2)c(F)c1` (stereo not shown) [Example V-5], the LogP reads like this: under setting [1], 4.36; under setting [2], 4.43.

For `Fc1ccc(C2(C3(Oc4cccc(Br)c4)CC3)CO2)c(F)c1` (stereo not shown) [Example V-6], the LogP stood at 4.63 under setting [1] and 4.71 under setting [2].

Turning to `Fc1ccc(C2(C3(Oc4ccc(Br)cc4)CC3)CO2)c(F)c1` (stereo not shown) [Example V-7], the log partition coefficient (LogP) is 4.66 under setting [1] and 4.74 under setting [2].

For `Fc1ccc(C2(C3(Oc4ccccc4I)CC3)CO2)c(F)c1` (stereo not shown) [Example V-8], the LogP amounted to 4.58 under setting [1] and 4.66 under setting [2].

`Fc1ccc(C2(C3(Oc4cccc(I)c4)CC3)CO2)c(F)c1` (stereo not shown) [Example V-9]: the LogP under setting [1] is 4.82 and the LogP under setting [2] is recorded as 4.90.

In the case of `Fc1ccc(C2(C3(Oc4ccc(I)cc4)CC3)CO2)c(F)c1` (stereo not shown) [Example V-10], the lipophilicity (LogP) is, setting by setting: under setting [1], 4.87; under setting [2], 4.95.

`Fc1ccc(C2(C3(Oc4ccc(Br)cc4F)CC3)CO2)c(F)c1` (stereo not shown) [Example V-11] returned a lipophilicity (LogP) under setting [1] of 4.57 and a LogP under setting [2] of 4.65.

As for `Cc1cc(I)ccc1OC1(C2(c3ccc(F)cc3F)CO2)CC1` (stereo not shown) [Example V-12], the LogP under setting [2] was 5.40 and 5.48.
